Literature values as cited in US8952004B2, “CXCR3 receptor antagonists” (Boehringer Ingelheim International GmbH, priority 2010, dated 2015).

Test system: atherosclerotic lesion formation
Details: LDL receptor knockout model, dosed prophylactically

## CCOc1ccc(-n2c(C(C)N(Cc3cccnc3)C(=O)Cc3ccc(F)c(C(F)(F)F)c3)nc3ncccc3c2=O)cc1 (stereo not shown) [NBI-74330]
  atherosclerotic lesion formation: significantly attenuated atherosclerotic lesion formation
